From patent US20110288154A1, “RNA Interference Mediated Inhibition of Epithelial Sodium Channel (ENaC) Gene Expression Using Short Interfering Nucleic Acid (siNA)” (MERCK & CO., INC., priority 2008, published 2011) come the findings set out here.

One data set relates to rSCNN1A (r ENaCα) mRNA. The data set is described as follows: Screening of ENaCα siNAs in Rat H-4-II-E cells (quantitative RT-PCR). In kind it is cell-based. Also noted: Percent Reduction of the r ENaCα mRNA relative to a non-targeting control siNA (NTCs) / Rat % KD (efficacy of ENaCα mRNA knockdown): concentration or dose not given beside the values. Particulars: Rat H-4-II-E cells, n = 3; for Mean (rSCNN1A expression normalized to the level of rGAPDH) / Percent Reduction of the r ENaCα mRNA relative to a non-targeting control siNA (NTCs) / Avg GAPDH Expression (rGAPDH): 24 hours post-transfection; for Avg ENaCα Expression (rSCNN1A): harvested 24 hours post-transfection; for Avg GAPDH Expression (rGAPDH): housekeeping gene used for normalisation. The method, then: (§1) A series of probes and primers were used to detect the various mRNA transcripts of the genes of ENaCa and GAPDH in mouse, rat, and human cell lines. The assays were performed on an ABI 7500 instrument, according to the manufacturer's instructions. Within each experiment, the baseline was set in the exponential phase of the amplification curve, and based on the intersection point of the baselines with the amplification curve, a Ct value was assigned by the instrument. This Ct value was then assigned a QTY value based on the Standard Curve. The standard curve in the various experiments herein used 1 ng to 300 ng of RNA extracted from the same cell line used for the experimental transfections.
All IC50 values were calculated from the data using GraphPad Prizm software, specifically a sigmoidal, variable slope curve for simple ligand binding. Also, unless otherwise indicated, all calculations of the efficacy and potency (e.g., % knockdown) of the siNAs were done relative to a non-targeting control siNA. If reported, P-values were computed using The Students t-test, including the Welch Correction for unequal variances.
In all of the calculations of the % knock-down of mRNA, the calculation was made relative to the normalized level of expression of the gene of interest in the samples treated with the non-targeting control (NTC) unless otherwise indicated. The gene of interest expression level was divided by the level of expression of GAPDH or 36B4 (depending on the species) in each sample. The three replicates for each condition in each experiment were averaged and the standard deviation of those samples was calculated. The following formula was then used to calculate the % of knock-down of the gene of interest:
The ENaCα siNAs were designed and synthesized as described previously. The siNAs were screened in three cell lines. Human A549 cells, mouse NIH 3T3 and Rat H-4-II-E cells. The data from the screen of ENaCa siNAs in all three species is shown in Tables 3a, 3b, 4a, 4b, 5a, and 5b and a summary of the data for certain siNA molecules is presented in Table 6. Each screen was performed at 24 hrs. The decision to use this time point was based upon the degree of knockdown of the mRNA seen at that time point.

Another data set relates to ENaCα mRNA. The data set can be described thus: Screening of ENaCα siNAs in human A549 cells (quantitative RT-PCR). In kind it is cell-based. More on the design: Percent Reduction of the ENaCα mRNA relative to a non-targeting control siNA (NTC): concentration or dose not given beside the values. Particulars: human A549 cells, n = 3; for Avg ENaCα Expression: 25 nM siNA with Lipofectamine 2000, harvested 24 hours post-transfection; for Mean (level of ENaCα expression normalized to the level of GAPDH) / Percent Reduction of the ENaCα mRNA relative to a non-targeting control siNA (NTC) / Avg GAPDH Expression: 24 hours post-transfection; for Avg GAPDH Expression: housekeeping gene used for normalisation. The method, then: siNA constructs (Table 1b) may be tested for efficacy in reducing ENaC RNA expression in, for example, A549 human lung carcinoma cells. A549 (human; ATCC cat# CCL-185) cells were cultured at 37° C. in the presence of 5% CO2 and grown in Ham's F12K medium with 2 mM L-glutamine adjusted to contain 1.5 g/L sodium bicarbonate and supplemented with fetal bovine serum at a final concentration of 10% and 100 U/mL penicillin. The A549 cells were plated approximately 24 hours before transfection in 96-well plates at 7,500 cells/well, 100 μl/well. After 24 hours complexes containing siNA and Lipofectamine 2000 (Invitrogen) were created as follows: a solution of Lipofectamine 2000 in OPTI-MEM was prepared containing Lipofectamine 2000 at a final concentration of 14 μg/ml. In parallel, solutions of the siNAs were prepared in OPTI-MEM at a final concentration of 150 nM. After both solutions were incubated at 20° C. for 20 minutes an equal volume of the siNA solutions and the Lipofectamine 2000 solution were added together for each of the siNAs. The resultant solution has the siNAs at a final concentration of 75 nM and Lipofectamine 2000 at a final concentration of 7 μg/ml. This solution was incubated at 20° C. for 20 minutes. After incubation 50 μl of the solution were added to each of the wells (in triplicate). The final concentration of siNA in each well was 25 nM and the final concentration of Lipofectamine 2000 in each well was 2.33 μg/ml. […] Dose response curves were determined in a similar manner with each concentration being done in triplicate and maintaining a constant amount of Lipofectamine 2000 in each transfection.
RNA was extracted from 96-well plates using the Invitek Invisorb RNA Cell HTS 96 Kit/C (Cat# 70619000) with a slightly modified protocol. The details of the protocol for isolating RNA from each plate are described as follows:
1) Aspirate media with rake 2) Add 150 ul/well Lysis buffer 3) Place on plate shaker for 1 minute 4) Place DNA binding plate on top of 0.5 ml collection plate 5) Pipette 190 ul up and down twice and add to DNA binding plate 6) Cover plate 7) Centrifuge plates 4 minutes at 4000 RPM 8) Discard DNA binding plate 9) Place the RNA binding plate on top of 2 ml collection plate 10) Add 150 ul/well of Binding Buffer R to 0.5 ml collection plate 11) Move contents of 0.5 ml collection plate to RNA binding plate 12) Let incubate for 1 minute 13) Centrifuge plates 4 minutes at 4000 RPM 14) Add 600 ul/well of Wash Buffer R1 to RNA binding plate 15) Centrifuge plates 4 minutes at 4000 RPM 16) Dump wash buffer from 2 ml collection plate 17) Add 400 ul/well of Wash Buffer R2 to RNA binding plate 18) Centrifuge plates 4 minutes at 4000 RPM 19) Add 400 ul/well of Wash Buffer R2 to RNA binding plate 20) Centrifuge plates 10 minutes at 4000 RPM 21) Dump wash buffer from 2 ml collection plate 22) Centrifuge plates 3 minutes at 4000 RPM 23) Discard 2 ml collection plate and place RNA binding plate on to microtiter plate 24) Add 100 ul/well of elution buffer to RNA binding plate 25) Incubate for 2 minutes 26) Seal plate 27) Centrifuge plates 3 minutes at 4000 RPM 28) Discard RNA binding plate 29) Cover microtiter plate for storage in −80 freezer
as §1, with “transfections. […]” for “transfections.”

[invAb] = inverted abasic unit; d = 2'-deoxy (DNA); m = 2'-O-methyl; r = 2'-OH (RNA); f = 2'-fluoro

“B AAccGCAuGAAGAcGGccu TTB / AGGccGucuucAuGcGGuuUU (chain 1 AACCGCAUGAAGACGGCCUTT; chain 2 AGGCCGUCUUCAUGCGGUUUU; siRNA; chain 1: sugars from the 5' end ddffdddfdddddfddfffdd, [invAb] at 5' end, 3' end, backbone not given here; chain 2: sugars from the 5' end rrrffmfffffmfmfmmffmm, backbone not given here) [Site 337]”: in the data set on rSCNN1A (r ENaCα) mRNA, the “Mean (rSCNN1A expression normalized to the level of rGAPDH)” value is given as 0.96, the “Percent Reduction of the r ENaCα mRNA relative to a non-targeting control siNA (NTCs)” value is 25.4%, the “Avg ENaCα Expression (rSCNN1A)” value is recorded as 16.40 and the “Avg GAPDH Expression (rGAPDH)” value was 17.17. Also, in the data set on ENaCα mRNA, the “Avg ENaCα Expression” value worked out at 67.27, the “Mean (level of ENaCα expression normalized to the level of GAPDH)” value came out at 1.48, the “Percent Reduction of the ENaCα mRNA relative to a non-targeting control siNA (NTC)” value amounted to 5.0% and the “Avg GAPDH Expression” value was found to be 49.84.

Take “B AAccuGGGcAGccAGuGGA TTB / UCCAcuGGcuGcccAGGuuUU (sense AACCUGGGCAGCCAGUGGATT; antisense UCCACUGGCUGCCCAGGUUUU; siRNA; sense: sugars from the 5' end ddfffdddfddffddfddrdd, [invAb] at 5' end, 3' end, backbone not given here; antisense: sugars from the 5' end rrrmffmmffmfffmmmffmm, backbone not given here) [Site 1747]”: in the data set with rSCNN1A (r ENaCα) mRNA, the “Mean (rSCNN1A expression normalized to the level of rGAPDH)” value was 0.56, the “Percent Reduction of the r ENaCα mRNA relative to a non-targeting control siNA (NTCs)” value is 39.5%, the “Avg ENaCα Expression (rSCNN1A)” value amounted to 23.39 and the “Avg GAPDH Expression (rGAPDH)” value was 41.88. In the data set with ENaCα mRNA, the “Avg ENaCα Expression” value was 75.36, the “Mean (level of ENaCα expression normalized to the level of GAPDH)” value was found to be 0.58, the “Percent Reduction of the ENaCα mRNA relative to a non-targeting control siNA (NTC)” value came to 12.3% and the “Avg GAPDH Expression” value is 130.33.

On to “B AGccAGuGGAGccuGuGGu TTB / ACCAcAGGcuccAcuGGcuUU (sense AGCCAGUGGAGCCUGUGGUTT; antisense ACCACAGGCUCCACUGGCUUU; siRNA; sense: DNA at AGT, 2'-fluoro at CU, [invAb] at 5' end, 3' end, backbone not given here; antisense: sugars from the 5' end rrrmfmmmffffmffmmffmm, backbone not given here) [Site 1756]”, for which, in the data set on rSCNN1A (r ENaCα) mRNA, the “Mean (rSCNN1A expression normalized to the level of rGAPDH)” value is on record as 0.57, the “Percent Reduction of the r ENaCα mRNA relative to a non-targeting control siNA (NTCs)” value stood at 38.3%, the “Avg ENaCα Expression (rSCNN1A)” value was 23.08 and the “Avg GAPDH Expression (rGAPDH)” value was found to be 40.27. In the data set on ENaCα mRNA, the “Avg ENaCα Expression” value is recorded as 73.20, the “Mean (level of ENaCα expression normalized to the level of GAPDH)” value was 0.71, the “Percent Reduction of the ENaCα mRNA relative to a non-targeting control siNA (NTC)” value is given as −8.2% and the “Avg GAPDH Expression” value was 102.64.

Turning to “B AGuGuGGcuGuGccuAcAu TTB / AUGuAGGcAcAGccAcAcuUU (sense AGUGUGGCUGUGCCUACAUTT; antisense AUGUAGGCACAGCCACACUUU; siRNA; sense: DNA at AGT, 2'-fluoro at CU, [invAb] at 5' end, 3' end, backbone not given here; antisense: sugars from the 5' end rrrfmmmfmfmmffmfmffmm, backbone not given here) [Site 1382]”, in the data set on rSCNN1A (r ENaCα) mRNA, the “Mean (rSCNN1A expression normalized to the level of rGAPDH)” value came to 0.84, the “Percent Reduction of the r ENaCα mRNA relative to a non-targeting control siNA (NTCs)” value is recorded as 34.5%, the “Avg ENaCα Expression (rSCNN1A)” value is 22.02 and the “Avg GAPDH Expression (rGAPDH)” value turned out to be 26.11. Further, in the data set on ENaCα mRNA, the “Avg ENaCα Expression” value was determined as 72.49, the “Mean (level of ENaCα expression normalized to the level of GAPDH)” value is given as 1.30, the “Percent Reduction of the ENaCα mRNA relative to a non-targeting control siNA (NTC)” value was determined as 16.6% and the “Avg GAPDH Expression” value stood at 57.29.

As to “B AccGcAuGAAGAcGGccuu TTB / AAGGccGucuucAuGcGGuUU (chain 1 ACCGCAUGAAGACGGCCUUTT; chain 2 AAGGCCGUCUUCAUGCGGUUU; siRNA; chain 1: DNA at AGT, 2'-fluoro at CU, [invAb] at 5' end, 3' end, backbone not given here; chain 2: sugars from the 5' end rrrmffmfffffmfmfmmfmm, backbone not given here) [Site 338]”, in the data set with rSCNN1A (r ENaCα) mRNA, the “Mean (rSCNN1A expression normalized to the level of rGAPDH)” value was found to be 0.79, the “Percent Reduction of the r ENaCα mRNA relative to a non-targeting control siNA (NTCs)” value worked out at 38.7%, the “Avg ENaCα Expression (rSCNN1A)” value was 14.22 and the “Avg GAPDH Expression (rGAPDH)” value was determined as 18.42. For the same substance, in the data set on ENaCα mRNA, the “Avg ENaCα Expression” value is recorded as 65.83, the “Mean (level of ENaCα expression normalized to the level of GAPDH)” value amounted to 0.90, the “Percent Reduction of the ENaCα mRNA relative to a non-targeting control siNA (NTC)” value came to 42.2% and the “Avg GAPDH Expression” value came to 76.32.
